By GI50 is commonly meant the concentration that inhibits growth by half.

Test systems include SW-620; HOP-92; MDA-MB-435; Malme-3M; TK-10; RPMI-8226; ACHN; K562; SN12C; HOP-62; COLO 205; PC-3; SK-MEL-28; NCI-H522; OVCAR-3; EKVX; SK-MEL-2; MDA-MB-231; MOLT-4.
Test in all cases: DTP human tumour cell line panel, 48 h

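In this assay, cells in 96-well plates receive the compound at five concentrations for 48 hours. Endpoints are linearly interpolated between the surrounding concentrations. GI50 is the concentration that inhibits growth by half.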 Activity calls are given as the source filed them. Rule as the data show it: active = GI50 up to about 1.1 µM and inactive = higher.

On to `N#Cc1c(NC(=O)CCC(=O)O)ccc2ccccc12`, for which the GI50 in the test with SW-620, with HOP-92, in the test on MDA-MB-435, in the test on Malme-3M, in the test on TK-10 and with RPMI-8226 was > 100 µM (inactive) throughout. The GI50 in the test with ACHN, with K562, with SN12C, in the test with HOP-62, with COLO 205 and in the test with PC-3 was > 100 µM (inactive) throughout. Further, the GI50 in the test with SK-MEL-28, in the test on NCI-H522, in the test with OVCAR-3, in the test on EKVX, with SK-MEL-2 and with MDA-MB-231 was > 100 µM (inactive) throughout.

`O=C(C=P(c1ccccc1)(c1ccccc1)c1ccccc1)c1ccc(-c2cccs2)cc1`: the GI50 in the test on SW-620 was 4.33 µM (inactive); with MOLT-4, 2.15 µM (inactive); in the test with HOP-92 it was 3.48 µM (inactive); in the test on MDA-MB-435, 3.08 µM (inactive); in the test on Malme-3M it was 4.46 µM (inactive); in the test with TK-10 it was 3.08 µM (inactive). Further, the GI50 in the test on RPMI-8226 was 2.25 µM (inactive); with ACHN it was 3.73 µM (inactive); in the test on K562, 3.59 µM (inactive); in the test with SN12C it was 4.98 µM (inactive); in the test with HOP-62, 6.64 µM (inactive); in the test on COLO 205, 0.671 µM (active). For the same compound, the GI50 in the test on PC-3 was 4.12 µM (inactive); in the test with SK-MEL-28 it was 3.41 µM (inactive); with NCI-H522 it was 3.35 µM (inactive); with OVCAR-3, 2.9 µM (inactive); in the test on EKVX it was 2.61 µM (inactive); with SK-MEL-2 it was 1.39 µM (inactive). Besides, the GI50 in the test on MDA-MB-231 was 9.79 µM (inactive).

Regarding `CCCCCc1cc2cc3c(c(O)c2c(=O)[nH]1)C1(CC3)C(=O)c2c(O)c3c(c(O)c2C1=O)C(=O)C(OC)=CC3=O` (stereo not drawn), the GI50 with SW-620 is 0.442 µM (active); in the test with MOLT-4, 0.56 µM (active); with HOP-92 it was 0.263 µM (active); in the test on MDA-MB-435 it was 1.49 µM (inactive); with Malme-3M, 0.524 µM (active); in the test with RPMI-8226 it was 0.336 µM (active). For the same compound, the GI50 is 0.522 µM (active) with ACHN; 0.456 µM (active) in the test on K562; 0.877 µM (active) in the test with SN12C; 3.61 µM (inactive) in the test on HOP-62; 0.206 µM (active) in the test on COLO 205; 0.568 µM (active) in the test on PC-3. Further, the GI50 is 2.01 µM (inactive) in the test with SK-MEL-28; 0.359 µM (active) in the test with NCI-H522; 0.44 µM (active) in the test with OVCAR-3; 0.916 µM (active) with EKVX; 0.867 µM (active) in the test on SK-MEL-2; 0.479 µM (active) with MDA-MB-231.

Turning to `Cc1cnc(-n2c(C)nc3cc(Cl)ccc3c2=O)s1`, the GI50 was 43 µM (inactive) with SW-620; 30.8 µM (inactive) in the test with MOLT-4; 47.6 µM (inactive) in the test with HOP-92; 28.1 µM (inactive) in the test on MDA-MB-435; 67.9 µM (inactive) in the test with Malme-3M; 43.1 µM (inactive) with TK-10. In addition, the GI50 with ACHN was 31 µM (inactive); in the test with K562 it was 31.1 µM (inactive); in the test on SN12C it was 34.2 µM (inactive); in the test with HOP-62, > 100 µM (inactive); with COLO 205, 19 µM (inactive); in the test on PC-3, 27.9 µM (inactive). The GI50 in the test on SK-MEL-28 was 49.7 µM (inactive); in the test with NCI-H522 it was 22 µM (inactive); in the test with OVCAR-3 it was 45.6 µM (inactive); in the test with EKVX, 11.1 µM (inactive); in the test on SK-MEL-2 it was 25.4 µM (inactive); with MDA-MB-231 it was 42.5 µM (inactive).

Values taken from ChEMBL document CHEMBL1201862, “PubChem BioAssay data set” (2004).
